{
  "source": "patent US20100190710A1",
  "about": "“IL-23 RECEPTOR ANTAGONISTS AND USES THEREOF” (Valorisation HSJ, Societe en Commandite, priority 2007, published 2010)",
  "key": {"[1]": {"target": "T1, IL-12R (Homo sapiens, UniProt P42701+Q99665)", "T1 construct": "endogenous in cells", "T1 sequence (Q99665 24-862, other chains not shown)": "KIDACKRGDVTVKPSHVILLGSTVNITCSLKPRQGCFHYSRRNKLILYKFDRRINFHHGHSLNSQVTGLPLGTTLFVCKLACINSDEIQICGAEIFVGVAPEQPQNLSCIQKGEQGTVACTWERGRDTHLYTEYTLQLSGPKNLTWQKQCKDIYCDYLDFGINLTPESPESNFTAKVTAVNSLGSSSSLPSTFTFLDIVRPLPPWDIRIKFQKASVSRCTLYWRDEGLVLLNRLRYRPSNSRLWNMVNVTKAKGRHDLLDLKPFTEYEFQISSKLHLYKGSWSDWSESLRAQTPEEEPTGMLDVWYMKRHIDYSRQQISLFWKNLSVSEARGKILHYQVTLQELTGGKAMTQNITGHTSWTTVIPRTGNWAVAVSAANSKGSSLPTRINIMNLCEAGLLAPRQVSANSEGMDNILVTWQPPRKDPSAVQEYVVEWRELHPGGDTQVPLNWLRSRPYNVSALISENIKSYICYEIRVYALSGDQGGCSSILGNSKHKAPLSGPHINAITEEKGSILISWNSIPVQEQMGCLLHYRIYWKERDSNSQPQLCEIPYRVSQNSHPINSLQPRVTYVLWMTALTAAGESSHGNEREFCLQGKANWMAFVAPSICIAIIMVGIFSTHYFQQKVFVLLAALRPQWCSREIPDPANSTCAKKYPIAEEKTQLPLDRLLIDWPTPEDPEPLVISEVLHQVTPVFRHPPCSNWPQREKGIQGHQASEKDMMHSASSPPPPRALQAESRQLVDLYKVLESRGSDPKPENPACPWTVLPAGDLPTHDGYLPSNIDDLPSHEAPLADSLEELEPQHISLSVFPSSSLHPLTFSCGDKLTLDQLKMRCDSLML", "experiment": "IL-12-induced STAT4 phosphorylation (selectivity, Western blot)", "type": "cell-based", "conditions": "even at high concentrations, i.e., 10 μM", "procedure": "FIGS. 8A and 8B are a series of graphs and Western Blots showing the specificity and selectivity of IL-23R binding peptides. […] [^125I]-2305 binding was performed in phosphate buffer saline pH=7.4 on PMA-activated HL-60 cells. [^125I]-labelled and unlabelled peptide 2305 was incubated with cells for 1 hour for equilibration. Cells were then washed four times and bound radioactivity measured using a Cobra II Autogamma gamma counter (Packard). Non-activated HL-60 cells, which express little IL-23R, were used as a negative control (shown on Western Blot of IL-23 receptor). A robust increase in IL-23R expression by PMA was observed on duplicate Western blots. Peptide 2305 is easily labelled with [^125I] on its tyrosine; in absence of tyrosine (e.g., peptide 2309) [^14C]-labelled amino acids can be used. […] IL-12R is very homologous to IL-23R. Western Blots of phosphorylated STAT4 and total STAT4 were performed on cell lysates."}, "[2]": {"target": "T2, IL-23R (Mus musculus, UniProt Q8K4B4)", "T2 construct": "Spleens were sterilely removed from mice, sliced, and mashed in the presence of PBS buffer; from tissue; host or cells: mouse spleen: freshly isolated splenocytes, and CD4+ cells differentiated into TH17 cells", "T2 sequence (Q8K4B4 24-644)": "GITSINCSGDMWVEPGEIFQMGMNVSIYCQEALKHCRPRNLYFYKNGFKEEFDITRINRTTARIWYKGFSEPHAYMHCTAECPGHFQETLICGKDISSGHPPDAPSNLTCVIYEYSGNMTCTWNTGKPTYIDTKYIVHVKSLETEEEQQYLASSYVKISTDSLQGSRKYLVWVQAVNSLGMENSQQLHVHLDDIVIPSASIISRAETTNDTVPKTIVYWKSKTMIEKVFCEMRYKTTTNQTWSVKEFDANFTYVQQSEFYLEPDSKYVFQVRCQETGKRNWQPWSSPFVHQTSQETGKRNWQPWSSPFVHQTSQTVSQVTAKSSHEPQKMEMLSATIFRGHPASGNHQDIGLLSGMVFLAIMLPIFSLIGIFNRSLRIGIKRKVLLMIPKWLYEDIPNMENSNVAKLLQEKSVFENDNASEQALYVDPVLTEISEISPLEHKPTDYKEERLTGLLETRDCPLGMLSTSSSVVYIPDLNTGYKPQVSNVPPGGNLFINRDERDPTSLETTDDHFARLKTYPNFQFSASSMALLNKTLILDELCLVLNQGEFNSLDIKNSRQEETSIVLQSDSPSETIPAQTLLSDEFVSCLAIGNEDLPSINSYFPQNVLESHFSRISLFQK", "experiment": "IL-23-induced STAT3 phosphorylation in differentiated TH17 cells (Alpha Screen SureFire p-STAT-3)", "type": "cell-based", "conditions": "listed as APG-2309", "procedure": "CD4+ cells were isolated from 2.5×10^8 splenocytes with the EasySep isolation kit (StemCell Technologies) according to the manufacturer's instructions. CD4+ cells were incubated overnight with non-essential amino acids and anti-CD3 and CD28 antibodies (see above). The next day the cells were split into 12-well plates (1-2×10^6 cells/well) and incubated with complete RPMI medium (10% FBS, Pen/Strep, and non-essential amino acids (1×)) and a differentiation cocktail containing 2 μg/ml of anti-CD3, 2 μg/ml of anti-CD28, 5 ng/ml of TGFb1, 20 ng/ml of IL-6, 10 ng/ml of IL-23, 2 μg/ml of anti-rat anti IFNγ and 10 μg/ml of anti-mouse IL-4 (final concentrations).\nSplenocytes or TH17 cells were distributed in 384-well plates (Optiplate; Perkin Elmer) (100,000 cells/well). Cells were pre-incubated for 30 minutes with different concentrations of peptide APG-2305 or APG-2309 and incubated with 25 ng/ml of IL-23 (R&D systems) for 10 minutes. STAT3 phosphorylation was determined with the kit Alpha Screen SureFire p-STAT-3 assay from Perkin Elmer according to manufacturer's instructions. Briefly, after incubation with IL-23, cells were lysed and contacted with (1) protein A acceptor conjugated beads coated with anti-p-STAT-3 (Tyr705) and (2) streptavidin-coated donor beads. The resulting signal was measured with a Perkin Elmer Wallac En vision 2104 Multilabel reader. […]"}, "[3]": {"tested_on": "PMA-induced ear edema", "experiment": "PMA-induced ear edema, enteral (oral) administration", "type": "in vivo, rats", "conditions": "20 mg/kg administered orally", "procedure": "FIGS. 13A and 13B are graphs showing the effect of peptides APG-2305 (FIG. 13A) and APG-2309 (FIG. 13B) on PMA-induced inflammation. Intraperitoneal administration is abreviated “i.p.” and oral administration is abreviated “p.o.” Peptides APG-2305 and APG-2309 were also given by enteral administration to rats to verify their oral availability. The peptides at various concentrations were injected (twice a day; 200 μl) into the stomach with a gavage needle (Number 20) starting at day 2 of PMA treatment. On day 4 the total peptide dose was given as a bolus and animals were sacrificed 4-6 hours later. […] Scrambled peptide of APG-2305 (5 mg/kg/day) and intraperitoneal APG-2305 served as negative and positive controls respectively. APG-2309 was also injected enterally but inhibit PMA-induced ear edema only slightly at 20 mg/kg administered orally (FIG. 13B). APG-2309 is more hydrophobic than APG-2305."}, "[4]": {"target": "T2, IL-23R", "experiment": "IL-23-induced STAT3 phosphorylation in freshly isolated splenocytes (Alpha Screen SureFire p-STAT-3)", "type": "cell-based", "conditions": "freshly isolated splenocytes; listed as APG-2309", "procedure": "Spleens were sterilely removed from mice, sliced, and mashed in the presence of PBS buffer, 2% fetal bovine serum, and 1 mM EDTA. Tissue was allowed to pass through a number 26 syringe and was filtered through a 70 μm mesh nylon strainer. Cells were cultured with non-essential amino acids, 2 μg/ml of anti-CD3, and 20 μg/ml of anti-CD-28 as survival and differentiation factors.\nSplenocytes or TH17 cells were distributed in 384-well plates (Optiplate; Perkin Elmer) (100,000 cells/well). Cells were pre-incubated for 30 minutes with different concentrations of peptide APG-2305 or APG-2309 and incubated with 25 ng/ml of IL-23 (R&D systems) for 10 minutes. STAT3 phosphorylation was determined with the kit Alpha Screen SureFire p-STAT-3 assay from Perkin Elmer according to manufacturer's instructions. Briefly, after incubation with IL-23, cells were lysed and contacted with (1) protein A acceptor conjugated beads coated with anti-p-STAT-3 (Tyr705) and (2) streptavidin-coated donor beads. The resulting signal was measured with a Perkin Elmer Wallac En vision 2104 Multilabel reader. Graphs were generated using GraphPrism 4 software.\nThe effect of peptide APG-2305 and APG-2309 derivatives on IL-23-induced STAT3 phosphorylation was determined using CD-1 mice freshly isolated splenocytes and the Alpha Screen p-STAT3 assay (see above materials and methods) (FIGS. 6 and 7). […] As described herein, based on the efficacy of derivatives, we have identified regions in APG-2305 and APG-2309 peptides that are important for their ability to affect IL-23R activity."}, "[5]": {"tested_on": "MOG-induced EAE", "experiment": "Experimental Autoimmune Encephalitis (EAE) model", "type": "in vivo, C57/BL6 mice", "conditions": "for clinical signs of EAE: intraperitoneal"}, "[6]": {"conditions": "three times a day (3 mg/kg/day), Sudan black stain, listed as APG-2309"}},
  "note": "“Also recorded” adds a separate entry of the source. Peptide text beside a SMILES is read from it.",
  "data": [
    {"molecule": "CSCC[C@@H](N)C(=O)N[C@H](CCC(=O)O)C(=O)N[C@H](CCC(=O)O)C(=O)N[C@H](CO)C(=O)N[C@H](CCCCN)C(=O)N[C@H](CCC(N)=O)C(=O)N[C@H](CC(C)C)C(=O)N[C@H](CCC(N)=O)C(=O)N[C@H](CC(C)C)C(=O)O", "note": "[Peptide 2309, MEESKQLQL] (HELM PEPTIDE1{[dM].[dE].[dE].[dS].[dK].[dQ].[dL].[dQ].[dL]}$$$$V2.0; N-terminus and C-terminus assumed)", "values": [
      {"measurement": "effect on IL-12-induced STAT4 phosphorylation", "setting": "[1]", "result": "does not inhibit; also recorded: inability"},
      {"measurement": "effect on IL-23-induced STAT3 phosphorylation", "setting": "[2]", "result": "inhibit; also recorded: showed efficacy"},
      {"measurement": "PMA-induced ear edema", "setting": "[3]", "result": "only slightly"},
      {"measurement": "effect on IL-23-induced STAT3 phosphorylation", "setting": "[4]", "result": "inhibit; also recorded: showed efficacy"},
      {"measurement": "EAE-induced demyelination of the cerebellum", "setting": "[5]; [6]", "result": "protects against EAE-induced demyelination of the cerebellum; also recorded: totally prevents"},
      {"measurement": "EAE-induced demyelination of the spinal cord", "setting": "[5]; [6]", "result": "protects against EAE-induced demyelination of the spinal cord; also recorded: totally prevents"},
      {"measurement": "clinical signs of EAE", "setting": "[5]; treatment three times a day", "result": "completely abolished the induction of the disease symptoms"},
      {"measurement": "clinical signs of EAE", "setting": "[5]; twice a day at 2 mg/kg/day", "result": "retarded the appearance of the clinical signs of EAE"}
    ]}
  ]
}
